This is an account of results in patent publication EP4610269A1, “UROKINASE PLASMINOGEN ACTIVATOR SURFACE RECEPTOR (UPAR) LIGANDS FOR DIAGNOSTIC OR THERAPEUTIC USE” (3B Pharmaceuticals GmbH, priority 2024, dated 2025).

Like-named read-outs stand apart in the source and are kept apart here. Where a SMILES comes first, the peptide text is derived from it. Bridges are numbered along the chain shown (N, C = ends). [ ]: non-standard residue; d: D form. The star is where a group is joined. GdDOTA = Gd(III) DOTA conjugate, O=C([O-])CN1CCN(CC(=O)[O-])CCN(CC(=O)*)CCN(CC(=O)[O-])CC1.[Gd+3]; DOTA = O=C(O)CN1CCN(CC(=O)O)CCN(CC(=O)*)CCN(CC(=O)O)CC1; Pro(cis-4-F) = O=C(O)[C@@H]1C[C@H](F)CN1; Dopa = N[C@@H](Cc1ccc(O)c(O)c1)C(=O)O; Hyp = O=C(O)[C@@H]1C[C@@H](O)CN1; Pentanoyl(4-Me) = CC(C)CCC(=O)*; Cit = NC(=O)NCCC[C@H](N)C(=O)O; Butoxycarbonyl = CCCCOC(=O)*; Nva = CCC[C@H](N)C(=O)O; Pentanoyl = CCCCC(=O)* Bounds are passed on as bounds.

Data set [1] in a line: Plasma stability assay (mouse plasma). It is filed as in vitro ADME. The following applies: 37°C, LC-MS quantification; for remaining at 6 h, 9.8 µM: mouse plasma (sodium citrate 3.7%), read-out: % intact compound remaining after 6h incubation Mouse plasma. The procedure: (§1) In order to determine the stability of selected compounds of the invention in human and mouse plasma, a plasma stability assay was carried out. Such plasma stability assay measures degradation of compounds of the present invention in blood plasma. This is an important characteristic of a compound as compounds, with the exception of pro-drugs, which rapidly degrade in plasma, generally show poor in vivo efficacy. […] The stability is sufficient for the diagnostic, therapeutic and theragnostic use of these compounds according to the present invention.
(§2) The plasma stability samples were prepared by spiking 50 µl plasma aliquots (all sodium citrate 3.7%) with 1 µl of a 0.5 mM compound stock solution in DMSO. After vortexing the samples were incubated in a Thermomixer at 37°C for 0 and 6 hours. After incubation the samples were stored on ice until further treatment. All samples were prepared in duplicates.
A suitable internal standard was added to each sample (1 µl of a 0.5 mM stock solution in DMSO). Protein precipitation was performed using two different methods depending on the compound conditions as indicated in Table 13. • A) 250 µl of acetonitrile containing 1% trifluoroacetic acid was added. After incubation at room temperature for 30 min the precipitate was separated by centrifugation and 150 µl of the supernatant was diluted with 150 µl of 1% aqueous formic acid. • B) 150 µl of a zinc sulphate precipitation agent containing 78% 0.1 M zinc sulphate and 22% acetonitrile was added. After incubation at room temperature for 30 min the precipitate was separated by centrifugation. To 100 µl of the supernatant 10 µl of 1% formic acid was added followed by further incubation at 60°C for 10 min to complete the formation of the zinc chelate, if the compound contains a free DOTA moiety.
The determination of the analyte in the clean sample solutions was performed on an Agilent 1290 UHPLC system coupled to an Agilent 6530 Q-TOF mass spectrometer. The chromatographic separation was carried out on a Phenomenex BioZen XB-C18 HPLC column (50 x 2 mm, 1.7 µm particle size).
Two different elution gradients were applied using a mixture of 0.1% formic acid in water as eluent A and acetonitrile as eluent B: • A) 2% B to 41% in 7 min, 800 µl/min, 40°C. • B) 5% B to 50% B in 6 min, 800 µL/min, 40°C.
Mass spectrometric detection was performed in positive ion ESI mode by scanning the mass range from m/z 50 to 3000 with a sampling rate of 2 / sec.
(§3) From the mass spectrometric raw data the ion currents for the double or triple charged monoisotopic signal was extracted for both, the compound and the internal standard.
(§4) Quantitation was performed by external matrix calibration with internal standard using the integrated analyte signals.
(§5) Additionally, recovery was determined by spiking a pure plasma sample that only contained the internal standard after treatment with a certain amount of the compound.
(§6) Carry-over was evaluated by analysis of a blank sample (20% acetonitrile) after the highest calibration sample.
The result is stated as "% intact compound remaining after 6 h incubation" and means that from the amount of material at the start of the experiment the stated percentage is detected as unchanged material at the end of the experiment by LC-MS quantification. Since all compounds are more than 50% intact after 6 h they are considered as stable enough for diagnostic and therapeutic applications. Table 13: Results of the plasma stability assay

Data set [2] addresses T1, uPAR-expressing HEC-265 human endometrial adenocarcinoma cells (Homo sapiens, UniProt Q03405).
T1 construct: Cell surface uPAR-expressing HEC-265 human endometrial adenocarcinoma cells; host or cells: HEC-265
The data set is described as follows: Competitive FACS binding assay. The following applies: pIC50 category of FACS binding. In outline:
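Competitive displacement of a 10 nM biotinylated peptide from HEC-265 cells (1 h, 4 °C, PBS/1% BSA), detected via APC-streptavidin by flow cytometry. pIC50 from four-parameter logistic fit of median fluorescence versus concentration.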

Data set [3] in a line: Plasma stability assay (human plasma). The format is in vitro ADME. The following applies: human plasma (sodium citrate 3.7%), 37°C, LC-MS quantification, read-out: % intact compound remaining after 6h incubation Human plasma. The procedure:
as §1, §2
A suitable internal standard was added to each sample (1 µl of a 0.5 mM stock solution in DMSO). Protein precipitation was performed using two different methods depending on the compound conditions as indicated in Table 13. • A) 250 µl of acetonitrile containing 1% trifluoroacetic acid was added. […]
as §4, §5, §6
The result is stated as "% intact compound remaining after 6 h incubation" and means that from the amount of material at the start of the experiment the stated percentage is detected as unchanged material at the end of the experiment by LC-MS quantification. […]

The target in another data set is T2, human uPAR (uPAR-Fc) (Homo sapiens, UniProt Q03405).
T2 construct: comprising amino acids Leu23-Arg303 according to UniProt entry Q03405.1; purchased R&D Systems 10378-UK-100
T2 sequence (Q03405 23-303): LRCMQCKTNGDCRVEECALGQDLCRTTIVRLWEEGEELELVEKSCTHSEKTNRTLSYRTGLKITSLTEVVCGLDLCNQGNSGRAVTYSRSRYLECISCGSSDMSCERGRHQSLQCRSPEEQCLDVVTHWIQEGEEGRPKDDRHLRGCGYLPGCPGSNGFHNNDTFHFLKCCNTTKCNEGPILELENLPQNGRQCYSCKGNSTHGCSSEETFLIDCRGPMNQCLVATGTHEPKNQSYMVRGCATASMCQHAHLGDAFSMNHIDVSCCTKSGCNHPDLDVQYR
The data set is described as follows: Surface plasmon resonance (SPR) assay, single cycle kinetics. It is filed as binding. The conditions noted are these: pKD category for uPAR SPR activity assay, uPAR-Fc on Protein A-Chip, 25°C, read-out: pKD CAT (converted). In a few lines:
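uPAR-Fc (Leu23-Arg303 extracellular domains, human IgG1 Fc) captured on Protein A chip to ~2000 RU; single-cycle kinetics at 25°C in HEPES running buffer pH 7.4 with 0.1% DMSO. KD from double-referenced sensorgrams fitted to 1:1 Langmuir model, reported as pKD.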

Data set [4] deals with T3, Recombinant soluble human NEP (Homo sapiens, UniProt P08473).
T3 construct: Recombinant soluble human NEP; purchased BioTechne, Wiesbaden, Germany
T3 sequence (P08473 52-750 limits assumed): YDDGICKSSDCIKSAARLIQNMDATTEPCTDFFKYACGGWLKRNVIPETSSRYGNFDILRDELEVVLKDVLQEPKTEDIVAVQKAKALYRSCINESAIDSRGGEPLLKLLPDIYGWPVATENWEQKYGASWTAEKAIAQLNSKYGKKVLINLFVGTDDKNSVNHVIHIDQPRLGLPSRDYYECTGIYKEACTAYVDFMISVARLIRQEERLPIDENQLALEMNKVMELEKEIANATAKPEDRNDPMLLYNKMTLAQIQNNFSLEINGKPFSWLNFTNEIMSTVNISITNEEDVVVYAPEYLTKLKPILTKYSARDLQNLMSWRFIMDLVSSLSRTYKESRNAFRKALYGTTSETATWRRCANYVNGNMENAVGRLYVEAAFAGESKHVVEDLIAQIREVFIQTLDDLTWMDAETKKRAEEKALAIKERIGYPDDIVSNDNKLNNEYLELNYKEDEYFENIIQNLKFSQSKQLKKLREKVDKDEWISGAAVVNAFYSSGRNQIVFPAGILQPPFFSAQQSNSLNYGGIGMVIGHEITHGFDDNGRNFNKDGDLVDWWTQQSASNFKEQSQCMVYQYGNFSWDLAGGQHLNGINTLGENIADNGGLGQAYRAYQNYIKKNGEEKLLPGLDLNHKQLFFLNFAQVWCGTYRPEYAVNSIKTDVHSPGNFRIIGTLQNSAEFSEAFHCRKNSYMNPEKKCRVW
In words: Proteolytic stability assay against NEP. It is filed as in vitro ADME. The following applies: human NEP 100 ng/mL, compound 10 µM, 37°C, LC-MS quantification. The procedure: To assess the stability of compounds against NEP, the compounds were subjected to an in vitro assay based on the protocol described by Edelson et al. (Edelson, Makhlina et al. 2013).
Recombinant soluble human NEP (BioTechne, Wiesbaden, Germany) at a concentration of 100 ng/mL was mixed with the compound (10 µM) and a stable internal standard (10 µM) and incubated at 37°C. After several time points, samples were taken and analyzed with LC-MS.
The determination of the analyte in the clean sample solutions was performed on an Agilent 1290 UHPLC system coupled to an Agilent 6530 Q-TOF mass spectrometer. The chromatographic separation was carried out on a Phenomenex BioZen XB-C18 HPLC column (50 × 2 mm, 1.7 µm particle size) with gradient elution using a mixture of 0.1% formic acid in water as eluent A and acetonitrile as eluent B (2% B to 41% in 7 min, 800 µl/min, 40°C). Mass spectrometric detection was performed in positive ion ESI mode by scanning the mass range from m/z 50 to 3000 with a sampling rate of 2 / sec.
as §3, §4
The activity of NEP was examined using a commercially available chromogenic substrate of NEP.
The result is stated as "% intact compound remaining after 24 h incubation" and means that from the amount of material at the start of the experiment the stated percentage is detected as unchanged material at the end of the experiment by LC-MS quantification. Since all compounds are more than 50% intact after 24 h they are considered as stable enough for diagnostic and therapeutic applications. Table 14: Results of the NEP stability assay

T1 sequence (Q03405 23-335): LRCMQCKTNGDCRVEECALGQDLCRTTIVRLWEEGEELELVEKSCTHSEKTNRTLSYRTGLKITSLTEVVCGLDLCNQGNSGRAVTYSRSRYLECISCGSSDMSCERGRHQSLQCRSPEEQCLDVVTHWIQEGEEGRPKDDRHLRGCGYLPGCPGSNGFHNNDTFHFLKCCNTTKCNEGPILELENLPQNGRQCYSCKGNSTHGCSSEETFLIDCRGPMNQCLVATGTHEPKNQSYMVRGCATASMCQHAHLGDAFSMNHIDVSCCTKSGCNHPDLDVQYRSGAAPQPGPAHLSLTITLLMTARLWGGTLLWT

With `CCCCOC(=O)N[C@H]1CSSC[C@@H](C(N)=O)NC(=O)[C@H](CCC)NC(=O)[C@H]([C@@H](C)CC)NC(=O)[C@@H]2C[C@@H](O)CN2C(=O)[C@@H]2C[C@H](F)CN2C(=O)[C@H](Cc2ccccc2)NC(=O)[C@H](Cc2ccc(O)c(O)c2)NC(=O)[C@H](CCCCNC(=O)CN2CCN(CC(=O)O)CCN(CC(=O)O)CCN(CC(=O)O)CC2)NC(=O)[C@H]([C@@H](C)O)NC1=O` [UPAR-249, Butoc-[Cys-Thr-Lys(DOTA)-Dopa-Phe-4Cfp-Hyp-Ile-Nva-Cys]-NH2] (Butoxycarbonyl-CTK(DOTA)[Dopa]F[Pro(cis-4-F)][Hyp]I[Nva]C-NH2; disulfide 1-10), the fraction remaining at 6 h, 9.8 µM in data set [1] came out at 22%; in data set [3] it was 64%. For the same molecule, in data set [2], the IC50 is not above 10 nM. The Kd on human uPAR (uPAR-Fc) is less than 1.58 nM.
Taken in the same sequence, the figures for `CCCCC(=O)N[C@H]1CSSC[C@@H](C(N)=O)NC(=O)[C@H](CCC)NC(=O)[C@H]([C@@H](C)CC)NC(=O)[C@@H]2C[C@@H](O)CN2C(=O)[C@@H]2CCCN2C(=O)[C@H](Cc2ccccc2)NC(=O)[C@H](Cc2ccc(O)cc2)NC(=O)[C@H](CCCCNC(=O)CN2CCN(CC(=O)O)CCN(CC(=O)O)CCN(CC(=O)O)CC2)NC(=O)[C@H]([C@@H](C)O)NC1=O` [UPAR-301, Pent-[Cys-Thr-Lys(DOTA)-Tyr-Phe-Pro-Hyp-Ile-Nva-Cys]-NH2] (Pentanoyl-CTK(DOTA)YFP[Hyp]I[Nva]C-NH2; disulfide 1-10) were 91%, more than 95%, not above 10 nM and less than 1.58 nM.
With `CC[C@H](C)[C@@H]1NC(=O)[C@@H]2CCCN2C(=O)[C@@H]2CCCN2C(=O)[C@H](Cc2ccccc2)NC(=O)[C@H](Cc2ccc(O)cc2)NC(=O)[C@H](CCC(N)=O)NC(=O)[C@H](CCCCNC(=O)CN2CCN(CC(=O)O)CCN(CC(=O)O)CCN(CC(=O)O)CC2)NC(=O)[C@@H](NC(=O)CCC(C)C)CSSC[C@@H](C(N)=O)NC(=O)[C@H](CC(C)C)NC1=O` [UPAR-466, iHex-[Cys-Lys(DOTA)-Gln-Tyr-Phe-Pro-Pro-Ile-Leu-Cys]-NH2] ({Pentanoyl(4-Me)}-CK(DOTA)QYFPPILC-NH2; disulfide 1-10), the IC50 in data set [2] is not above 10 nM. Further, the amount remaining at 24 h, 10 µM in data set [4] (recombinant soluble human NEP, read-out: % intact compound remaining after 24h incubation) is more than 95%. Also, the Kd on human uPAR (uPAR-Fc) (single cycle kinetics) is less than 1.58 nM.
Take “iHex-[Cys-Cit-Lys(GdDOTA)-Tyr-Phe-Pro-ala-Ile-Leu-Cys]-NH2 ({Pentanoyl(4-Me)}-C[Cit]K(GdDOTA)YFP[dA]ILC-NH2; disulfide 1-10 (inferred); not fully specified) [UPAR-463]”: the “% intact compound remaining after 6h incubation Mouse plasma” value in data set [1] (mouse plasma (sodium citrate)) was found to be 81%. Besides, the “pIC50 CAT” value in data set [2] is “A (pIC50 values ≥8.0)”. Also, the “% intact compound remaining after 24h incubation” value in data set [4] worked out at 88%.

Broadly, the amount remaining is the share of the starting amount still present when the sample was taken. One may read the IC50 as the concentration needed to halve the response being measured. Read a high IC50 as a need for much substance.
